Reference: the kinase profiling compilation of Christmann-Franck et al. (2016)

Columns and labels:
Assay in all cases: KINOMEscan competition binding
Details in all cases: compound 10.0 µM
AKT2 (human) = AKT2 (human) (UniProt P31751)
AURKB (human) = AURKB (human) (UniProt Q96GD4)
BLK (human) = BLK (human) (UniProt P51451)
BMPR1B (human) = BMPR1B (human) (UniProt O00238)
CAMK1G (human) = CAMK1G (human) (UniProt Q96NX5)
CDC42BPA (human) = CDC42BPA (human) (UniProt Q5VT25)
CHUK (human) = CHUK (human) (UniProt O15111)
CPK1 (P.falciparum) = tested on: CPK1 (P.falciparum)
DDR2 (human) = DDR2 (human) (UniProt Q16832)
DYRK1B (human) = DYRK1B (human) (UniProt Q9Y463)
EPHA4 (human) = EPHA4 (human) (UniProt P54764)
ERN1 (human) = ERN1 (human) (UniProt O75460)
FER (human) = FER (human) (UniProt P16591)
FES (human) = FES (human) (UniProt P07332)
[1] = tested on: FLT3 (human), P36888 [D835Y]
ICK (human) = ICK (human) (UniProt Q9UPZ9)
LATS2 (human) = LATS2 (human) (UniProt Q9NRM7)
LIMK2 (human) = LIMK2 (human) (UniProt P53671)
MAP2K1 (human) = MAP2K1 (human) (UniProt Q02750)
MAP2K2 (human) = MAP2K2 (human) (UniProt P36507)
MAP2K6 (human) = MAP2K6 (human) (UniProt P52564)
MAPK1 (human) = MAPK1 (human) (UniProt P28482)
MAPK15 (human) = MAPK15 (human) (UniProt Q8TD08)
MAPK3 (human) = MAPK3 (human) (UniProt P27361)
MARK2 (human) = MARK2 (human) (UniProt Q7KZI7)
NEK6 (human) = NEK6 (human) (UniProt Q9HC98)
NEK9 (human) = NEK9 (human) (UniProt Q8TD19)
NTRK3 (human) = NTRK3 (human) (UniProt Q16288)
NUAK2 (human) = NUAK2 (human) (UniProt Q9H093)
PAK1 (human) = PAK1 (human) (UniProt Q13153)
PAK6 (human) = PAK6 (human) (UniProt Q9NQU5)
PIK3CD (human) = PIK3CD (human) (UniProt O00329)
PRKAA1 (human) = PRKAA1 (human) (UniProt Q13131)
PRKX (human) = PRKX (human) (UniProt P51817)
RPS6KA1 KD1 (human) = RPS6KA1 KD1 (human) (UniProt Q15418)
SGK3 (human) = SGK3 (human) (UniProt Q96BR1)
STK3 (human) = STK3 (human) (UniProt Q13188)
TNIK (human) = TNIK (human) (UniProt Q9UKE5)
TNK1 (human) = TNK1 (human) (UniProt Q13470)
TRPM6 (human) = TRPM6 (human) (UniProt Q9BX84)
ZAP70 (human) = ZAP70 (human) (UniProt P43403)

Chain of TNK1 (human) (Q13470 whole entry, looked up): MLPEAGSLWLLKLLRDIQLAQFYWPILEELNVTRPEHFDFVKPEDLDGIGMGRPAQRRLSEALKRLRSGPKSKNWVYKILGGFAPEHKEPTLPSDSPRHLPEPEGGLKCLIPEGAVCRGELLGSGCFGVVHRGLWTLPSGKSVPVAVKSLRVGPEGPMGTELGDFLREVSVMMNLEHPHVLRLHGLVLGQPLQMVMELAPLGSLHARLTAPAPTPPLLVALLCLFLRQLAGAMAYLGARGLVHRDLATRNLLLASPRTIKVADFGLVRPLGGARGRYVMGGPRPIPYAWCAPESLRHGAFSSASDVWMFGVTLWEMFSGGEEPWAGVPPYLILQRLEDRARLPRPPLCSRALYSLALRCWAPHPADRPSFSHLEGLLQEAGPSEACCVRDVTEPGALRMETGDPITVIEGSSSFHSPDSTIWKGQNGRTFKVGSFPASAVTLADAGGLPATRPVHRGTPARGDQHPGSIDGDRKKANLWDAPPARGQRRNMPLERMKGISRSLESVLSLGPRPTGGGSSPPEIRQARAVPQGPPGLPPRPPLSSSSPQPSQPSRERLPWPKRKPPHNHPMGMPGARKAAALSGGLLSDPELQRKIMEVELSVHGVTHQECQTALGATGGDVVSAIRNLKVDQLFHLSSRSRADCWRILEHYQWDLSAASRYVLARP
Chain of FER (human) (P16591 whole entry, looked up): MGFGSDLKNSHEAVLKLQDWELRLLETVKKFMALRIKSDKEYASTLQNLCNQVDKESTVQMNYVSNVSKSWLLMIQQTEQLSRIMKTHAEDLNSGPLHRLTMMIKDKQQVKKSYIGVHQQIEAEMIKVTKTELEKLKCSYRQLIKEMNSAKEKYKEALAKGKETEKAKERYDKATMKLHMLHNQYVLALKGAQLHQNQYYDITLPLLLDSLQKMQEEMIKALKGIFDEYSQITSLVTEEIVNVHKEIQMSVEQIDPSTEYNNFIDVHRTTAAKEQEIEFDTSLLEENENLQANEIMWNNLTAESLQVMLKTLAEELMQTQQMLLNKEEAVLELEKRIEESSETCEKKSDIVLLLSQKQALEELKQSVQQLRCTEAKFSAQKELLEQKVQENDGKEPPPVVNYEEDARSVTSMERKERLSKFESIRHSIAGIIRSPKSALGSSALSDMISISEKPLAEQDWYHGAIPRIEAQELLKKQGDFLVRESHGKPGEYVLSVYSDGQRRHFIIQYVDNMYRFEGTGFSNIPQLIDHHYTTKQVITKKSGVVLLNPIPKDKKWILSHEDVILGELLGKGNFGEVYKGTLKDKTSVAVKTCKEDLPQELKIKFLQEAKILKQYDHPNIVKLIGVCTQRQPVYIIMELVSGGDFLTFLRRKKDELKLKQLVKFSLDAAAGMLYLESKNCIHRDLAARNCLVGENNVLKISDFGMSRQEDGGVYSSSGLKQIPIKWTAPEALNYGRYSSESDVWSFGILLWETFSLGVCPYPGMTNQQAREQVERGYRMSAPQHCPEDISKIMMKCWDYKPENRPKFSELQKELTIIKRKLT
Chain of PRKAA1 (human) (Q13131 whole entry, looked up): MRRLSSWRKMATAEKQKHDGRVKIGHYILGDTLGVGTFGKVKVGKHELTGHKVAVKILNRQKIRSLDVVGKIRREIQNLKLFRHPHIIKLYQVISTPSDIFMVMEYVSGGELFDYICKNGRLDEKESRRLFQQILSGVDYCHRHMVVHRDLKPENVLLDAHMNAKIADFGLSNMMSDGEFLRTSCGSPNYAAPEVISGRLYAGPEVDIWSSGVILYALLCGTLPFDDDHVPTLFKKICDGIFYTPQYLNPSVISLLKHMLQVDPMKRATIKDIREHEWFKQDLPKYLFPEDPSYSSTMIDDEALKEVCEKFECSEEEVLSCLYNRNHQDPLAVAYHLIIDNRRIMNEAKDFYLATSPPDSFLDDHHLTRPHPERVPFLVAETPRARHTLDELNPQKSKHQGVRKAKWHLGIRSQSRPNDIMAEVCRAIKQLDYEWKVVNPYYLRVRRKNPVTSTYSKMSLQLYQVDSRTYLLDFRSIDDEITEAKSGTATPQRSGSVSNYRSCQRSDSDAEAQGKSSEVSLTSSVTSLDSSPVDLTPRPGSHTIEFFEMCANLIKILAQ
Chain of NEK6 (human) (Q9HC98 whole entry, looked up): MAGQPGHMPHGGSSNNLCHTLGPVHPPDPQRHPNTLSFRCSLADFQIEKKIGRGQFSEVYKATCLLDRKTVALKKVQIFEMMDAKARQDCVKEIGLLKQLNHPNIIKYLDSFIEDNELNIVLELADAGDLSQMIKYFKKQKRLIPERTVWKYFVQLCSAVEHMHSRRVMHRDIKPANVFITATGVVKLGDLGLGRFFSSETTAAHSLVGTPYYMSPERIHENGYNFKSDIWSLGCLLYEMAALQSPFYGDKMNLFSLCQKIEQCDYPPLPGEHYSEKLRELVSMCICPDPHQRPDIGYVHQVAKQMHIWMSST
Chain of BMPR1B (human) (O00238 whole entry, looked up): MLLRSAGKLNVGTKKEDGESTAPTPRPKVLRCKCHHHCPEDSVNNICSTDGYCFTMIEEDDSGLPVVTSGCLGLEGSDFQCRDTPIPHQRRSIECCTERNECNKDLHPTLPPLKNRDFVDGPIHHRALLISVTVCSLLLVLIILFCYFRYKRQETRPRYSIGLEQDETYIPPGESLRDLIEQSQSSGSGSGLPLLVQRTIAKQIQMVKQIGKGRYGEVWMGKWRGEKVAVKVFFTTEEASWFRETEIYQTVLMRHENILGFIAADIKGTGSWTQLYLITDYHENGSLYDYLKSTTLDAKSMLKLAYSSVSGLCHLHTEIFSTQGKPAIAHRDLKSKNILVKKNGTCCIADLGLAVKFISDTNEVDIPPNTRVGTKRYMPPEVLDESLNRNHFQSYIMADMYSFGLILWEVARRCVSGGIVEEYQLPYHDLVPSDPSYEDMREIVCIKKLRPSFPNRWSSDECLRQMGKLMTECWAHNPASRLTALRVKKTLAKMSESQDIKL
Chain of MAP2K6 (human) (P52564 whole entry, looked up): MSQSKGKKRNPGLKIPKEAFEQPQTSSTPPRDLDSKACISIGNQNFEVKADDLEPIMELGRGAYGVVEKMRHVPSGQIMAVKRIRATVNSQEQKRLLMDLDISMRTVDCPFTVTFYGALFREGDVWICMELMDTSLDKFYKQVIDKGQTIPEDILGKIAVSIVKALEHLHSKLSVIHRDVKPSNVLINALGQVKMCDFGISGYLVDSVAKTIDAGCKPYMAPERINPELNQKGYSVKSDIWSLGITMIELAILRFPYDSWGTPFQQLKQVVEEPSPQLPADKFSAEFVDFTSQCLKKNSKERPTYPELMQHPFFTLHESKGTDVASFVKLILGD
Chain of BLK (human) (P51451 whole entry, looked up): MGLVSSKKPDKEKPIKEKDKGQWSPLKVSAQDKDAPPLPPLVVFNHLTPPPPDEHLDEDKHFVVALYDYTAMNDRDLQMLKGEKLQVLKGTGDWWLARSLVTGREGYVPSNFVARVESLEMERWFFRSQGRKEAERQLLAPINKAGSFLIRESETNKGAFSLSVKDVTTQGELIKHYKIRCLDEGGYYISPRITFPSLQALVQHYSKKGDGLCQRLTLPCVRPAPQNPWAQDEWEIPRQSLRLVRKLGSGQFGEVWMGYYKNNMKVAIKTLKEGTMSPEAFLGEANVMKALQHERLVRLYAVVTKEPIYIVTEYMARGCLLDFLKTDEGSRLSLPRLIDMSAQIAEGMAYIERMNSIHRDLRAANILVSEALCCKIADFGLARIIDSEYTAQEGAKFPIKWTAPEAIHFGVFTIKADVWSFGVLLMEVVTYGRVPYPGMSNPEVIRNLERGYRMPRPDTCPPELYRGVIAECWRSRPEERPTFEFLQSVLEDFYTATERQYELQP
Chain of NTRK3 (human) (Q16288 whole entry, looked up): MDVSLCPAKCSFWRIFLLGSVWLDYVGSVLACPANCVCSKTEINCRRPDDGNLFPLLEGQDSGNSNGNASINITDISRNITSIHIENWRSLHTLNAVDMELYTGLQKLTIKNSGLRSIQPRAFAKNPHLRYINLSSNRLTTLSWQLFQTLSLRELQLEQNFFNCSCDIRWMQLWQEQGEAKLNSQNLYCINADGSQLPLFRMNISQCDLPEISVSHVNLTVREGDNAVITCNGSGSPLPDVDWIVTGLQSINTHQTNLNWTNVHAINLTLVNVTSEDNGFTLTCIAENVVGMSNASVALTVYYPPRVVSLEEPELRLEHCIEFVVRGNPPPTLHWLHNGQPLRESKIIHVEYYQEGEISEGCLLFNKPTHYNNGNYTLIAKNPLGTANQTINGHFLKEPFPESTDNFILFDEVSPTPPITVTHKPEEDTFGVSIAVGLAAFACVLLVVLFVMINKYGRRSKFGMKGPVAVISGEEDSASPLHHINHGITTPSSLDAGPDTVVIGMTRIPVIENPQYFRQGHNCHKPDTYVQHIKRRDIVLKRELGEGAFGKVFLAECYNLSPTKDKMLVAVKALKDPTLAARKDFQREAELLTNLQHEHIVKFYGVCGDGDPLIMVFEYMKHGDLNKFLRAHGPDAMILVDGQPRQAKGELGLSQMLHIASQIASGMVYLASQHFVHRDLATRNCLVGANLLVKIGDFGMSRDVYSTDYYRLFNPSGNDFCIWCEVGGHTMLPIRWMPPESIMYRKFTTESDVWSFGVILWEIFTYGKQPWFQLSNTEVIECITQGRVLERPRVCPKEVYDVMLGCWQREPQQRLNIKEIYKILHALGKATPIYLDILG
Chain of MAPK1 (human) (P28482 whole entry, looked up): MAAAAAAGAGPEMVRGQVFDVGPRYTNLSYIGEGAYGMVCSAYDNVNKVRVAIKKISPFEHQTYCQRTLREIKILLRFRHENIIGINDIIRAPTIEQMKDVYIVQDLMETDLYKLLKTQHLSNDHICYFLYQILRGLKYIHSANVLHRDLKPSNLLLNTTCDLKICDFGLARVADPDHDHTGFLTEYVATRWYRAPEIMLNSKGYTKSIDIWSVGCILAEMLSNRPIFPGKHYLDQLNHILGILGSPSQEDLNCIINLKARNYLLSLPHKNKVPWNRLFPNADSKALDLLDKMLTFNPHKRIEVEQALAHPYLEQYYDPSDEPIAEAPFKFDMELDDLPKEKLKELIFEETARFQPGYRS

**Q.** Which results are given for `COc1cc2c(Nc3ccc(NC(=O)c4ccccc4)cc3)ncnc2cc1OCCCN1CCOCC1`?
**A.** kinase still bound, per cent of control (AKT2 (human)): 100%; kinase still bound, per cent of control (AURKB (human)): 0.15%; kinase still bound, per cent of control (BLK (human)): 0.5%; kinase still bound, per cent of control (BMPR1B (human)): 26%; kinase still bound, per cent of control (CAMK1G (human)): 66%; kinase still bound, per cent of control (CDC42BPA (human)): 85%; kinase still bound, per cent of control (CHUK (human)): 100%; kinase still bound, per cent of control (CPK1 (P.falciparum)): 47%; kinase still bound, per cent of control (DDR2 (human)): 100%; kinase still bound, per cent of control (DYRK1B (human)): 96%; kinase still bound, per cent of control (EPHA4 (human)): 98%; kinase still bound, per cent of control (ERN1 (human)): 74%; kinase still bound, per cent of control (FER (human)): 65%; kinase still bound, per cent of control (FES (human)): 100%; kinase still bound, per cent of control [1]: 44%; kinase still bound, per cent of control (ICK (human)): 100%; kinase still bound, per cent of control (LATS2 (human)): 82%; kinase still bound, per cent of control (LIMK2 (human)): 78%; kinase still bound, per cent of control (MAP2K1 (human)): 0.1%; kinase still bound, per cent of control (MAP2K2 (human)): 0.1%; kinase still bound, per cent of control (MAP2K6 (human)): 86%; kinase still bound, per cent of control (MAPK1 (human)): 72%; kinase still bound, per cent of control (MAPK15 (human)): 100%; kinase still bound, per cent of control (MAPK3 (human)): 100%; kinase still bound, per cent of control (MARK2 (human)): 81%; kinase still bound, per cent of control (NEK6 (human)): 100%; kinase still bound, per cent of control (NEK9 (human)): 100%; kinase still bound, per cent of control (NTRK3 (human)): 98%; kinase still bound, per cent of control (NUAK2 (human)): 94%; kinase still bound, per cent of control (PAK1 (human)): 82%; kinase still bound, per cent of control (PAK6 (human)): 95%; kinase still bound, per cent of control (PIK3CD (human)): 100%; kinase still bound, per cent of control (PRKAA1 (human)): 62%; kinase still bound, per cent of control (PRKX (human)): 81%; kinase still bound, per cent of control (RPS6KA1 KD1 (human)): 72%; kinase still bound, per cent of control (SGK3 (human)): 100%; kinase still bound, per cent of control (STK3 (human)): 100%; kinase still bound, per cent of control (TNIK (human)): 51%; kinase still bound, per cent of control (TNK1 (human)): 69%; kinase still bound, per cent of control (TRPM6 (human)): 98%; kinase still bound, per cent of control (ZAP70 (human)): 100%

**Q.** What does the source list for `CC1=C(C(=O)Nc2cc3cn[nH]c3cc2F)C(c2ccc(C(F)(F)F)cc2)CC(=O)N1` (stereo not drawn)?
**A.** kinase still bound, per cent of control (AKT2 (human)): 64%; kinase still bound, per cent of control (AURKB (human)): 42%; kinase still bound, per cent of control (BLK (human)): 12%; kinase still bound, per cent of control (BMPR1B (human)): 65%; kinase still bound, per cent of control (CAMK1G (human)): 81%; kinase still bound, per cent of control (CDC42BPA (human)): 79%; kinase still bound, per cent of control (CHUK (human)): 100%; kinase still bound, per cent of control (CPK1 (P.falciparum)): 82%; kinase still bound, per cent of control (DDR2 (human)): 100%; kinase still bound, per cent of control (DYRK1B (human)): 84%; kinase still bound, per cent of control (EPHA4 (human)): 78%; kinase still bound, per cent of control (ERN1 (human)): 71%; kinase still bound, per cent of control (FER (human)): 100%; kinase still bound, per cent of control (FES (human)): 95%; kinase still bound, per cent of control [1]: 74%; kinase still bound, per cent of control (ICK (human)): 79%; kinase still bound, per cent of control (LATS2 (human)): 10%; kinase still bound, per cent of control (LIMK2 (human)): 89%; kinase still bound, per cent of control (MAP2K1 (human)): 73%; kinase still bound, per cent of control (MAP2K2 (human)): 64%; kinase still bound, per cent of control (MAP2K6 (human)): 95%; kinase still bound, per cent of control (MAPK1 (human)): 50%; kinase still bound, per cent of control (MAPK15 (human)): 80%; kinase still bound, per cent of control (MAPK3 (human)): 53%; kinase still bound, per cent of control (MARK2 (human)): 99%; kinase still bound, per cent of control (NEK6 (human)): 70%; kinase still bound, per cent of control (NEK9 (human)): 89%; kinase still bound, per cent of control (NTRK3 (human)): 100%; kinase still bound, per cent of control (NUAK2 (human)): 6%; kinase still bound, per cent of control (PAK1 (human)): 81%; kinase still bound, per cent of control (PAK6 (human)): 90%; kinase still bound, per cent of control (PIK3CD (human)): 98%; kinase still bound, per cent of control (PRKAA1 (human)): 13%; kinase still bound, per cent of control (PRKX (human)): 14%; kinase still bound, per cent of control (RPS6KA1 KD1 (human)): 72%; kinase still bound, per cent of control (SGK3 (human)): 100%; kinase still bound, per cent of control (STK3 (human)): 63%; kinase still bound, per cent of control (TNIK (human)): 100%; kinase still bound, per cent of control (TNK1 (human)): 33%; kinase still bound, per cent of control (TRPM6 (human)): 70%; kinase still bound, per cent of control (ZAP70 (human)): 100%

**Q.** Which kinase still bound, per cent of control (AKT2 (human)) does the source give for `N#C/C(=C1/Nc2ccccc2S1)c1ccnc(NCCc2cccnc2)n1` here?
**A.** 89%

**Q.** What about the kinase still bound, per cent of control (AURKB (human)) of the same molecule?
**A.** 89%

**Q.** And the kinase still bound, per cent of control (BLK (human))?
**A.** 100%

**Q.** And the kinase still bound, per cent of control (BMPR1B (human))?
**A.** 18%

**Q.** What about the kinase still bound, per cent of control (CAMK1G (human)) of the same molecule?
**A.** 61%

**Q.** And the kinase still bound, per cent of control (CDC42BPA (human))?
**A.** 83%

**Q.** And the kinase still bound, per cent of control (CHUK (human))?
**A.** 42%

**Q.** What about the kinase still bound, per cent of control (CPK1 (P.falciparum)) of the same molecule?
**A.** 4.2%

**Q.** What about the kinase still bound, per cent of control (DDR2 (human)) of the same molecule?
**A.** 100%

**Q.** What about the kinase still bound, per cent of control (DYRK1B (human)) of the same molecule?
**A.** 23%

**Q.** What about the kinase still bound, per cent of control (EPHA4 (human)) of the same molecule?
**A.** 100%

**Q.** What about the kinase still bound, per cent of control (ERN1 (human)) of the same molecule?
**A.** 79%

**Q.** And the kinase still bound, per cent of control (FER (human))?
**A.** 100%

**Q.** What about the kinase still bound, per cent of control (FES (human)) of the same molecule?
**A.** 100%

**Q.** And the kinase still bound, per cent of control [1]?
**A.** 53%

**Q.** What about the kinase still bound, per cent of control (ICK (human)) of the same molecule?
**A.** 64%

**Q.** And the kinase still bound, per cent of control (LATS2 (human))?
**A.** 92%

**Q.** What about the kinase still bound, per cent of control (LIMK2 (human)) of the same molecule?
**A.** 96%

**Q.** What about the kinase still bound, per cent of control (MAP2K1 (human)) of the same molecule?
**A.** 9.6%

**Q.** And the kinase still bound, per cent of control (MAP2K2 (human))?
**A.** 17%

**Q.** And the kinase still bound, per cent of control (MAP2K6 (human))?
**A.** 64%

**Q.** And the kinase still bound, per cent of control (MAPK1 (human))?
**A.** 84%

**Q.** And the kinase still bound, per cent of control (MAPK15 (human))?
**A.** 73%

**Q.** What about the kinase still bound, per cent of control (MAPK3 (human)) of the same molecule?
**A.** 100%

**Q.** And the kinase still bound, per cent of control (MARK2 (human))?
**A.** 75%

**Q.** And the kinase still bound, per cent of control (NEK6 (human))?
**A.** 100%

**Q.** What about the kinase still bound, per cent of control (NEK9 (human)) of the same molecule?
**A.** 90%

**Q.** And the kinase still bound, per cent of control (NTRK3 (human))?
**A.** 69%

**Q.** And the kinase still bound, per cent of control (NUAK2 (human))?
**A.** 100%

**Q.** And the kinase still bound, per cent of control (PAK1 (human))?
**A.** 77%

**Q.** What about the kinase still bound, per cent of control (PAK6 (human)) of the same molecule?
**A.** 78%

**Q.** And the kinase still bound, per cent of control (PIK3CD (human))?
**A.** 78%

**Q.** What about the kinase still bound, per cent of control (PRKAA1 (human)) of the same molecule?
**A.** 100%

**Q.** What about the kinase still bound, per cent of control (PRKX (human)) of the same molecule?
**A.** 81%

**Q.** What about the kinase still bound, per cent of control (RPS6KA1 KD1 (human)) of the same molecule?
**A.** 83%

**Q.** What about the kinase still bound, per cent of control (SGK3 (human)) of the same molecule?
**A.** 100%

**Q.** And the kinase still bound, per cent of control (STK3 (human))?
**A.** 59%

**Q.** And the kinase still bound, per cent of control (TNIK (human))?
**A.** 70%

**Q.** What about the kinase still bound, per cent of control (TNK1 (human)) of the same molecule?
**A.** 46%

**Q.** What about the kinase still bound, per cent of control (TRPM6 (human)) of the same molecule?
**A.** 100%

**Q.** And the kinase still bound, per cent of control (ZAP70 (human))?
**A.** 100%
